Test systems include SF-295 CNS; HL-60(TB) leukemia; IGROV1 ovarian; TK-10 renal; SK-MEL-5 melanoma; OVCAR-5 ovarian; T-47D breast; NCI-H226 lung; HS 578T breast; RPMI-8226 leukemia.
Common to all, as to test: NCI tumour cell line growth inhibition, 48 h

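Values below derive from 48-hour exposures of cells grown in 96-well plates, with endpoints linearly interpolated between the two concentrations bracketing the appropriate inhibition level. TGI: total growth inhibition.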

With `O=C1CC(C(O)(C(F)(F)F)C(F)(F)Cl)CCC1C(O)(C(F)(F)F)C(F)(F)Cl` (stereo not given), the TGI in the assay with SF-295 CNS, with HL-60(TB) leukemia, in the assay with IGROV1 ovarian, in the assay with TK-10 renal, in the assay on SK-MEL-5 melanoma and in the assay on OVCAR-5 ovarian was over 10 µM each time. Moreover, the TGI in the assay on T-47D breast, in the assay on NCI-H226 lung, with HS 578T breast and in the assay on RPMI-8226 leukemia was over 10 µM in each case.
Consider `C[C@@H]1S[C@H](c2ccccc2F)N2Cc3ccccc3N=C12`, for which the TGI was over 100 µM with SF-295 CNS; 52.3 µM with HL-60(TB) leukemia; over 100 µM with IGROV1 ovarian; 94.2 µM in the assay with TK-10 renal; 32.5 µM with SK-MEL-5 melanoma; over 100 µM in the assay on OVCAR-5 ovarian. In addition, the TGI is 91.4 µM in the assay with T-47D breast, over 100 µM in the assay on NCI-H226 lung, over 100 µM in the assay on HS 578T breast and 44.4 µM in the assay on RPMI-8226 leukemia.
As for `COc1cc2nc(-c3cccs3)oc(=O)c2cc1OC`, the TGI in the assay with SF-295 CNS, in the assay on HL-60(TB) leukemia, in the assay on IGROV1 ovarian, in the assay on TK-10 renal, with SK-MEL-5 melanoma and in the assay with OVCAR-5 ovarian was over 100 µM each time. Besides, the TGI in the assay on T-47D breast, with NCI-H226 lung, in the assay with HS 578T breast and in the assay on RPMI-8226 leukemia was over 100 µM each time.
On to `COC(=O)c1cc2c(cc1CC1Cc3cc4c(cc3C1)CCC4)CCC2`, for which the TGI is over 100 µM with SF-295 CNS; 32.7 µM in the assay with HL-60(TB) leukemia; over 100 µM in the assay with IGROV1 ovarian; over 100 µM in the assay with TK-10 renal; over 100 µM in the assay with SK-MEL-5 melanoma; over 100 µM in the assay with OVCAR-5 ovarian. Further, the TGI in the assay on T-47D breast is over 100 µM; in the assay on NCI-H226 lung it was over 100 µM; in the assay on HS 578T breast, over 100 µM; in the assay with RPMI-8226 leukemia, 61.4 µM.
Consider `O=C(O)C(SC1=NNC2(C(=O)N1)c1ccccc1-c1ccccc12)SC1=NNC2(C(=O)N1)c1ccccc1-c1ccccc12`, for which the TGI with SF-295 CNS, in the assay with HL-60(TB) leukemia, in the assay on IGROV1 ovarian, in the assay with TK-10 renal, in the assay on SK-MEL-5 melanoma and in the assay with OVCAR-5 ovarian was over 10 µM throughout. The TGI in the assay with T-47D breast, in the assay on NCI-H226 lung, in the assay on HS 578T breast and in the assay on RPMI-8226 leukemia was over 10 µM in each case.
For `COC(=O)c1c2c(cc3c1CCC3)CCC2`, the TGI in the assay with SF-295 CNS is over 100 µM; in the assay with HL-60(TB) leukemia it was 38.4 µM; in the assay on IGROV1 ovarian it was over 100 µM; in the assay with TK-10 renal, over 100 µM; with SK-MEL-5 melanoma it was 29.5 µM; in the assay with OVCAR-5 ovarian, over 100 µM. For the same compound, the TGI in the assay with T-47D breast was 43.9 µM; with NCI-H226 lung, over 100 µM; with HS 578T breast, over 100 µM; in the assay on RPMI-8226 leukemia it was 52.4 µM.
In the case of `C/C1=C\CC[C@@]2(C)O[C@@H]2C[C@@H](C2(C)CO2)CC/C(C)=C/CC1` (stereo not given in full), the TGI with SF-295 CNS is 51 µM; with HL-60(TB) leukemia it was 71.9 µM; in the assay with IGROV1 ovarian, over 100 µM; in the assay with TK-10 renal, 32.5 µM; in the assay on SK-MEL-5 melanoma, 47.1 µM; with OVCAR-5 ovarian, 50 µM. The TGI in the assay with T-47D breast is 78.3 µM; with NCI-H226 lung, 30.3 µM; with HS 578T breast it was 46.3 µM; in the assay with RPMI-8226 leukemia, over 100 µM.
`CC(C)(C)OC(=O)NCCC(N)=S`: the TGI with SF-295 CNS, with HL-60(TB) leukemia, with IGROV1 ovarian, in the assay on TK-10 renal, in the assay with SK-MEL-5 melanoma and with OVCAR-5 ovarian was over 100 µM throughout. For the same compound, the TGI in the assay on T-47D breast, in the assay on NCI-H226 lung, in the assay with HS 578T breast and with RPMI-8226 leukemia was over 100 µM in each case.
Turning to `C[C@@H](Cl)[C@H]1CCCN(Cc2ccc(Br)cc2)C1`, the TGI in the assay on SF-295 CNS, in the assay with HL-60(TB) leukemia, in the assay on IGROV1 ovarian, with TK-10 renal, in the assay with SK-MEL-5 melanoma and in the assay on OVCAR-5 ovarian was over 12.5 µM throughout. Also, the TGI with T-47D breast, with NCI-H226 lung, with HS 578T breast and with RPMI-8226 leukemia was over 12.5 µM in each case.
Turning to `N/C(=N\S(=O)(=O)c1c(C(F)(F)F)cccc1C(F)(F)F)Nc1ccc(Cl)cc1`, the TGI with SF-295 CNS was over 100 µM; in the assay with HL-60(TB) leukemia, 51.9 µM; in the assay with IGROV1 ovarian, 60.2 µM; in the assay with TK-10 renal it was 65 µM; with SK-MEL-5 melanoma, 35.6 µM; with OVCAR-5 ovarian, 73.1 µM. The TGI with T-47D breast was over 100 µM; with NCI-H226 lung it was over 100 µM; in the assay on HS 578T breast, 68.6 µM; in the assay on RPMI-8226 leukemia, over 100 µM.
Regarding `CCOC(=O)C(Cl)(Cl)/S(=N\S(=O)(=O)c1ccccc1)NC(=O)c1ccccc1` (stereo not given), the TGI in the assay with SF-295 CNS, in the assay with HL-60(TB) leukemia, in the assay on IGROV1 ovarian, in the assay on TK-10 renal, in the assay with SK-MEL-5 melanoma and with OVCAR-5 ovarian was over 100 µM each time. For the same compound, the TGI with T-47D breast, in the assay on NCI-H226 lung, with HS 578T breast and in the assay on RPMI-8226 leukemia was over 100 µM each time.
In the case of `NNC1=N/C(=C\c2ccco2)C(Cl)=N1`, the TGI was over 100 µM with SF-295 CNS; 51.4 µM in the assay on HL-60(TB) leukemia; over 100 µM in the assay with IGROV1 ovarian; over 100 µM in the assay with TK-10 renal; over 100 µM with SK-MEL-5 melanoma; over 100 µM in the assay on OVCAR-5 ovarian. Also, the TGI in the assay with T-47D breast is over 100 µM; in the assay with NCI-H226 lung, over 100 µM; in the assay with HS 578T breast, over 100 µM; in the assay on RPMI-8226 leukemia, 41.8 µM.
With `COC(=O)CCc1cc(OC)c2c(c1)[C@H](C(=O)OC)[C@@H](c1ccc(O)c(OC)c1)O2`, the TGI in the assay with SF-295 CNS is over 100 µM; in the assay with HL-60(TB) leukemia, 36 µM; in the assay with IGROV1 ovarian, over 100 µM; in the assay with TK-10 renal, over 100 µM; in the assay on SK-MEL-5 melanoma, over 100 µM; in the assay on OVCAR-5 ovarian, over 100 µM. For the same compound, the TGI in the assay with T-47D breast is over 100 µM; in the assay with NCI-H226 lung, over 100 µM; in the assay on HS 578T breast, over 100 µM; with RPMI-8226 leukemia it was 55.5 µM.
For the compound `O=C(O)c1cc(-c2ccc3c(O)c(O)ccc3c2)ccc1O`, the TGI with SF-295 CNS is 29.1 µM; in the assay with HL-60(TB) leukemia it was 53.5 µM; with IGROV1 ovarian it was over 75 µM; in the assay with TK-10 renal, over 75 µM; in the assay on SK-MEL-5 melanoma, over 75 µM; in the assay on OVCAR-5 ovarian, 26.2 µM. The TGI is over 75 µM with T-47D breast, over 75 µM in the assay with NCI-H226 lung, over 75 µM in the assay on HS 578T breast and 49.1 µM with RPMI-8226 leukemia.
In the case of `CC(=O)O[C@H]1C(=O)[C@@]2(C)[C@H]([C@H](OC(=O)c3ccc(F)cc3)[C@]3(O)C[C@H](OC(=O)[C@H](O)[C@@H](NC(=O)c4ccccc4)c4ccccc4)C(C)=C1C3(C)C)[C@]1(OC(C)=O)CO[C@@H]1C[C@@H]2O`, the TGI in the assay on SF-295 CNS is over 6.59 µM; with HL-60(TB) leukemia, 0.0149 µM; with IGROV1 ovarian it was over 25 µM; with TK-10 renal, over 16.1 µM; with SK-MEL-5 melanoma it was over 9.33 µM; in the assay with OVCAR-5 ovarian, over 11.5 µM. The TGI in the assay on T-47D breast was over 9.63 µM; in the assay with NCI-H226 lung, over 25 µM; with HS 578T breast, 0.0559 µM; in the assay with RPMI-8226 leukemia, 0.0195 µM.
Consider `Cc1ccc(CC[P+](=O)CCc2ccc(C)nc2)cn1`, for which the TGI in the assay on SF-295 CNS, with HL-60(TB) leukemia, with IGROV1 ovarian, in the assay on TK-10 renal, in the assay on SK-MEL-5 melanoma and in the assay on OVCAR-5 ovarian was over 100 µM throughout. The TGI in the assay with T-47D breast, in the assay with NCI-H226 lung, with HS 578T breast and with RPMI-8226 leukemia was over 100 µM each time.
For the compound `COc1cc(-c2cc(=O)c3cc4c(=O)cc(-c5cc(OC)c(OC)c(OC)c5)oc4cc3o2)cc(OC)c1OC`, the TGI was 40.6 µM in the assay with SF-295 CNS; over 100 µM with HL-60(TB) leukemia; over 79.1 µM with IGROV1 ovarian; 42.5 µM in the assay with TK-10 renal; over 100 µM in the assay on SK-MEL-5 melanoma; over 100 µM in the assay with OVCAR-5 ovarian. The TGI with T-47D breast was over 100 µM; in the assay on NCI-H226 lung it was 46.2 µM; in the assay on HS 578T breast it was 97.2 µM; with RPMI-8226 leukemia it was over 100 µM.
For `CCCCNC(=S)N/N=C/c1cccc(C)n1`, the TGI with SF-295 CNS was over 100 µM; with HL-60(TB) leukemia, over 100 µM; with IGROV1 ovarian it was over 100 µM; in the assay with TK-10 renal, 97.6 µM; with SK-MEL-5 melanoma, over 100 µM; with OVCAR-5 ovarian it was over 100 µM. Also, the TGI is over 100 µM in the assay on T-47D breast, 62.2 µM with NCI-H226 lung, over 100 µM with HS 578T breast and over 100 µM in the assay on RPMI-8226 leukemia.
With `O=C(Oc1cc(=O)c(OC(=O)c2ccccc2)co1)c1ccccc1`, the TGI with SF-295 CNS, with HL-60(TB) leukemia, in the assay with IGROV1 ovarian, in the assay on TK-10 renal, in the assay with SK-MEL-5 melanoma and in the assay on OVCAR-5 ovarian was over 100 µM in each case. The TGI with T-47D breast, with NCI-H226 lung, in the assay on HS 578T breast and with RPMI-8226 leukemia was over 100 µM each time.
`S=c1[nH]c2ccc(Br)cc2c(=S)s1`: the TGI in the assay with SF-295 CNS is 85.1 µM; in the assay with HL-60(TB) leukemia, 62.4 µM; in the assay with IGROV1 ovarian it was over 100 µM; in the assay with TK-10 renal, 84.5 µM; with SK-MEL-5 melanoma, 37.8 µM; in the assay on OVCAR-5 ovarian, 60.4 µM. In addition, the TGI is 73.9 µM in the assay on T-47D breast, over 100 µM in the assay on NCI-H226 lung, over 100 µM in the assay on HS 578T breast and 95.4 µM with RPMI-8226 leukemia.
On to `COc1ccc(-c2c3c([nH]c(=S)c2C#N)CC(C)(C)CC3=O)cc1`, for which the TGI in the assay with SF-295 CNS, in the assay with HL-60(TB) leukemia, in the assay on IGROV1 ovarian, with TK-10 renal, with SK-MEL-5 melanoma and in the assay on OVCAR-5 ovarian was over 100 µM throughout. Also, the TGI in the assay on T-47D breast, with NCI-H226 lung, in the assay on HS 578T breast and in the assay on RPMI-8226 leukemia was over 100 µM each time.
For `O=c1ccn(C2OC(CO)C(P(=O)(O)O)C2O)c(=O)[nH]1` (stereo not given), the TGI in the assay on SF-295 CNS, in the assay on HL-60(TB) leukemia, in the assay with IGROV1 ovarian, in the assay on TK-10 renal, in the assay with SK-MEL-5 melanoma and with OVCAR-5 ovarian was over 100 µM throughout. In addition, the TGI in the assay with T-47D breast, in the assay with NCI-H226 lung, in the assay with HS 578T breast and in the assay on RPMI-8226 leukemia was over 100 µM throughout.
